Test results from PubChem BioAssay (NCI).
“And” between values parts separate entries of the source, which are not always exact repeats. Equal entries are not always repeated.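 Five compound concentrations were applied to cells in 96-well plates for 48 hours; endpoints were derived by simple linear interpolation of the resulting dose-response curve. GI50 = concentration required for 50% inhibition of growth. Definition used: TGI = concentration required for complete inhibition of growth.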

Columns and labels:
Test in all cases: NCI-60 cell line screen, 48 h
[1] = tested on: SN12C renal
[2] = tested on: DMS 114 small cell lung
[3] = tested on: SW-620 colon
[4] = tested on: UO-31 renal
[5] = tested on: OVCAR-3 ovarian
[6] = tested on: EKVX NSCLC
[7] = tested on: SF-268 CNS
[8] = tested on: TK-10 renal
[9] = tested on: CCRF-CEM leukemia
[10] = tested on: SR leukemia

With `CC1=C(CC/C(C)=C/CCC2(C)CCC([C@H](C)C(=O)O)OO2)C(C)(C)CCC1` (some centres undefined) (tested in a mixture with another compound) the TGI [1] was > 100 µM, the TGI [2] was > 100 µM and the TGI [3] was > 100 µM. For the same molecule, the TGI [4] was > 100 µM, the TGI [5] was > 100 µM and the TGI [6] was > 100 µM. The TGI [7] was > 100 µM and the TGI [8] was > 100 µM.

With `COc1ccccc1NC(=O)N/C(N)=N/c1nc2ccccc2s1` the GI50 [1] was 0.307 µM, the TGI [1] was > 100 µM and the GI50 [9] was 0.111 µM. The TGI [9] was > 100 µM, the GI50 [3] was 0.0531 µM and the TGI [3] was > 100 µM. The GI50 [4] was 0.389 µM, the TGI [4] was > 100 µM and the GI50 [5] was 0.0403 µM. For the same molecule, the TGI [5] was 0.317 µM, the GI50 [10] was 0.0228 µM and the TGI [10] was > 100 µM. For the same molecule, the GI50 [6] was 0.409 µM, the TGI [6] was > 100 µM and the TGI [7] was > 100 µM. The TGI [8] was > 100 µM.

`C[C@]1(O)CC(=O)[C@]2(O)C3=C(C=C[C@]2(O)C1)C(=O)c1c(O)cccc1C3=O` showed a GI50 [1] of 1.72 µM, a TGI [1] of 3.18 µM and a GI50 [9] of 0.342 µM. The TGI [9] was 3.33 µM, the GI50 [3] was 1.2 µM and the TGI [3] was 3.35 µM. The GI50 [4] was 1.23 µM, the TGI [4] was 2.52 µM and the GI50 [5] was 1.23 µM. The TGI [5] was 2.62 µM, the GI50 [10] was 0.635 µM and the TGI [10] was 4.95 µM. It also gave a GI50 [6] of 11.6 µM, a TGI [6] of 23.8 µM and a GI50 [7] of 5.16 µM. For the same molecule, the TGI [7] was 20.5 µM, the GI50 [8] was 2.27 µM and the TGI [8] was 3.97 µM.

Work on `Cc1cc2cc(Oc3ccnc(Nc4cccc(CS(=O)(=O)NCCN(C)C)c4)n3)ccc2[nH]1` yielded a GI50 [1] of 5.81 µM, a TGI [1] of 19.2 µM and a GI50 [9] of 3.36 µM. For the same molecule, the TGI [9] was 11.3 µM, the GI50 [3] was 7.99 µM and the TGI [3] was 23.5 µM. The GI50 [4] was 3.14 µM, the TGI [4] was 14.9 µM and the GI50 [5] was 4.3 µM. For the same molecule, the TGI [5] was 15.8 µM, the GI50 [10] was 1.59 µM and the TGI [10] was 4.95 µM. It also gave a GI50 [6] of 12.2 µM, a TGI [6] of 26.7 µM and a GI50 [7] of 3.93 µM. It also gave a TGI [7] of 17.3 µM, a GI50 [8] of 12.5 µM and a TGI [8] of 25.3 µM.

`Cc1ccc2nc(NC(=O)CSC(=S)N3CCN(Cc4ccccc4)CC3)sc2c1` was tested, and the GI50 [1] was > 100 µM, the TGI [1] was > 100 µM and the GI50 [9] was > 100 µM. The TGI [9] was > 100 µM, the GI50 [3] was > 100 µM and the TGI [3] was > 100 µM. The GI50 [4] was > 79.5 µM, the TGI [4] was > 100 µM and the GI50 [5] was > 100 µM. The TGI [5] was > 100 µM, the GI50 [10] was > 100 µM and the TGI [10] was > 100 µM. The GI50 [6] was > 100 µM, the TGI [6] was > 100 µM and the GI50 [7] was > 100 µM. For the same molecule, the TGI [7] was > 100 µM, the GI50 [8] was > 100 µM and the TGI [8] was > 100 µM.

With `COc1cc2c(c(OC)c1OC)C(=O)c1c-2n(CCCN)c(=O)c2cc([N+](=O)[O-])ccc12` the GI50 [1] was 5.11 µM, the TGI [1] was 13.6 µM and the GI50 [9] was 0.285 µM. The TGI [9] was 0.834 µM, the GI50 [3] was 0.31 µM and the TGI [3] was 3.3 µM. The GI50 [4] was 1.89 µM, the TGI [4] was 3.57 µM and the GI50 [5] was 1.06 µM. The TGI [5] was 2.4 µM, the GI50 [10] was 2.41 µM and the TGI [10] was 5.44 µM. It also gave a GI50 [6] of 3.02 µM, a TGI [6] of 8.32 µM and a GI50 [7] of 0.364 µM. The TGI [7] was 1.95 µM, the GI50 [8] was 0.616 µM and the TGI [8] was 1.3 µM.

For `O=C(O/N=C1/CCC/C1=C\c1ccccc1)c1ccc(Cl)cc1`, the TGI [1] was > 100 µM, the TGI [9] was > 100 µM and the TGI [3] was > 100 µM. The TGI [4] was > 100 µM, the TGI [5] was > 71.9 µM and the TGI [10] was > 100 µM. The TGI [6] was > 100 µM, the TGI [7] was > 100 µM and the TGI [8] was > 100 µM.

In the case of `CCCCCCCCCCCCCCCC[N+](C)(C)C`, the GI50 [1] is reported as 0.285 µM and 2.06 µM, the TGI [1] is reported as 1.07 µM and 4.56 µM and the GI50 [9] is reported as 0.656 µM. The TGI [9] was 2.44 µM, the GI50 [3] was 0.239 µM and 1.31 µM and the TGI [3] was 0.859 µM and 2.97 µM. For the same molecule, the GI50 [4] was 0.552 µM and 2.18 µM, the TGI [4] was 2.27 µM and 10.6 µM and the GI50 [5] was 0.182 µM and 1.16 µM. For the same molecule, the TGI [5] was 0.519 µM and 2.81 µM, the GI50 [10] was 0.166 µM and the TGI [10] was 0.551 µM. The GI50 [6] was 0.577 µM and 1.59 µM, the TGI [6] was 3.17 µM and 4.28 µM and the GI50 [7] was 0.177 µM and 1.21 µM. For the same molecule, the TGI [7] was 0.483 µM and 3.12 µM, the GI50 [8] was 1.11 µM and the TGI [8] was 2.81 µM.

Molecule `CC(C)NCCCNC1=C(Cl)C(=O)c2ccccc2C1=O` has a GI50 [1] of 1.89 µM, a TGI [1] of 3.93 µM and a GI50 [9] of 3.56 µM. For the same molecule, the TGI [9] was 17.6 µM, the GI50 [3] was 1.74 µM and the TGI [3] was 3.37 µM. It also gave a GI50 [4] of 14.4 µM, a TGI [4] of 29.2 µM and a GI50 [5] of 1.83 µM. It also gave a TGI [5] of 3.58 µM, a GI50 [10] of 2.27 µM and a TGI [10] of 6.08 µM. The GI50 [6] was 1.4 µM, the TGI [6] was 2.83 µM and the GI50 [7] was 4.42 µM. The TGI [7] was 15.1 µM, the GI50 [8] was 22.7 µM and the TGI [8] was 38.8 µM.

For `C=C(C)[C@@H]1CC[C@]2(C)[C@H](CC=C3[C@@H]4CC(C)(C)CC[C@]4(C(=O)OC)CC[C@]32C)[C@@]1(C)CC/C(N)=N/O`, the GI50 [1] was 1.66 µM, the TGI [1] was 3.2 µM and the GI50 [9] was 2.19 µM. For the same molecule, the TGI [9] was 6.2 µM, the GI50 [3] was 1.88 µM and the TGI [3] was 4.32 µM. It also gave a GI50 [4] of 1.51 µM, a TGI [4] of 2.94 µM and a GI50 [5] of 1.67 µM. For the same molecule, the TGI [5] was 3.18 µM, the GI50 [10] was 1.81 µM and the TGI [10] was 5.2 µM. The GI50 [6] was 2.11 µM, the TGI [6] was 6.8 µM and the GI50 [7] was 1.96 µM. The TGI [7] was 4.76 µM, the GI50 [8] was 3.66 µM and the TGI [8] was 18.6 µM.
